Reference: patent US20040063699A1, “Gpr14 antagonist” (priority 2000, published 2004)
Where a name gives a salt, the structure may show the parent alone.

Target: T1, human GPR14 (Homo sapiens, UniProt Q9UKP6)
T1 construct: expressed in transfected cells
T1 sequence (Q9UKP6 1-389): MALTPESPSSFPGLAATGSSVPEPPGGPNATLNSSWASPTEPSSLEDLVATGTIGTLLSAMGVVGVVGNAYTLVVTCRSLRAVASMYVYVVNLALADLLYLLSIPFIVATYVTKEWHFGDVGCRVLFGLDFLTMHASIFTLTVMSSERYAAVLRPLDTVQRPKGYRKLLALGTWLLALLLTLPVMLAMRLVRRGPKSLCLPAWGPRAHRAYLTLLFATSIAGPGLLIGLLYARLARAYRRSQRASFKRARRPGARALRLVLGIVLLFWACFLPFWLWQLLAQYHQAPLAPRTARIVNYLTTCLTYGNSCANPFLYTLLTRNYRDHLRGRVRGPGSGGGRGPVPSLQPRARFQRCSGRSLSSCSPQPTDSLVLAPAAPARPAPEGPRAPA
Experiment: Inhibition of binding of [125I]-labeled human urotensin II to human GPR14-expressing CHO cell membrane fraction
Conditions: 25° C., 3 hours, read-out: Inhibitory concentration (concentration at which the compound showed 50% inhibition of human GPR14 binding activity)
Procedure: To 1×10^8 CHO/GPR14 cells were added 10 ml of homogenate buffer (10 mM NaHCO3, 5 mM EDTA, 0.5 mM PMSF, 1 μg/ml pepstatin, 4 μg/ml E64, 20 μg/ml leupeptin), and disrupted using Polytron (12,000 rpm, 1 minute). Cell debris solution was centrifuged at 1,000 g for 15 minutes to obtain a supernatant. The supernatant was then […] (in Beckman type 30 rotor, 30,000 rpm, 1 hour), and the resultant precipitant was collected as human GPR14-expressing CHO cell fraction.
Isotope-labeled human urotensin II to be used in experiments for testing inhibition of binding was prepared as described below. 5 μg of human urotensin II (available from Peptide Institute, Inc.) was dissolved in 25 μl of 0.4M sodium acetate (pH 5.6). To the solution was added 200 ng of lactoperoxidase (Wako Pure Chemical Industries, Ltd.) followed by 1 mCi [^125I]-sodium iodide (Amersham Pharmacia Biotech) and 200 ng of hydrogen peroxide (10 μl). The solution was left to stand at room temperature for 10 minutes, another 200 ng of hydrogen peroxide (10 μl) was added thereto and then the solution was left to stand for 10 minutes. The mixture was then purified by HPLC using TSKgel ODS-80Ts column (4.6 mm×25 cm, Toso Co., Ltd.) to obtain [^125I]-labeled human urotensin II.
Experiment for Testing the Ability of Test compound to Inhibit Binding of Urotensin II to GPR14 Using Human GPR14-Expressing Cell Fraction and Isotope-Labeled Urotensin II
Human GPR14-expressing CHO cell fraction was diluted in a membrane diluting buffer (20 mM phosphate buffer (pH7.3), 150 mM NaCl, 5 mM MgCl2, […], 0.05% CHAPS, 0.5 mM PMSF, 0.1 μg/ml Pepstatin, 20 μg/ml Leupeptin, 4 μg/ml E-64) to prepare a solution of cell membrane fraction (protein concentration: 3 μg/ml) for assay. […] Next, the filter was washed three times with membrane diluting buffer (0.2 ml), added with 20 μl of Microscinti 20 (Packard), and determined for radioactivity in Topcount (Packard). Specific-binding is calculated by subtracting non-specific binding from the total binding. […]

| IC50 [nM] | Compound |
| --- | --- |
| 3.2 | O=C(CCCN1CCN(C(c2ccc(F)cc2)c2ccc(F)cc2)CC1)c1ccc2c(c1)CCNCC2 [Example 6, 4-{4-[bis(4-fluorophenyl)methyl]-1-piperazinyl}-1-(2,3,4,5-tetrahydro-1H-3-benzazepin-7-yl)-1-butanone trihydrochloride] |
| 8.6 | O=S(=O)(NCCN1CCN(Cc2ccccc2)CC1)c1ccc2c(c1)CCNCC2 [Example 75, N-[2-(4-benzyl-1-piperazinyl)ethyl]-2,3,4,5-tetrahydro-1H-3-benzazepine-7-sulfonamide trihydrochloride] |
| 1.7 | O=C(NCCN1CCN(C(c2ccc(F)cc2)c2ccc(F)cc2)CC1)c1ccc2c(c1)CCNCC2 [Example 84, N-(2-{4-[bis(4-fluorophenyl)methyl]piperazin-1-yl}ethyl)-2,3,4,5-tetrahydro-1H-3-benzazepine-7-carboxamide trihydrochloride] |
